Assay results taken from patent EP2064211B1, “IMIDAZO[1,2-A]PYRIDINE HYDROXYMATE COMPOUNDS THAT ARE INHIBITORS OF HISTONE DEACETYLASE” (MEI Pharma, Inc., priority 2006, dated 2008).

Experiments:
[1] = test system: Colo205 cells; assay: Cell-based proliferation assay for determination of GI50 values (CyQUANT); set-up: species or system Human; settings: Homo sapiens, COLO 205, compound treatment 96 h, concentration for 50% inhibition of cell growth, read-out: Gl50 (Colo205)
Experimental: Human cancer cell lines (e.g. Colo205) were obtained from ATCC. Colo205 cells were cultivated in RPMI 1640 containing 2 mM L-Glutamine, 5% FBS, 1.0 mM Na Pyruvate. Colo205 cells were seeded in 96-wells plate at 5000 cells per well. The plates were incubated at 37°C, 5% CO2, for 24 h. Cells were treated with compounds at various concentrations for 96 h. Cell growth was then monitored using CyQUANT® cell proliferation assay (Invitrogen Pte Ltd). Dose response curves were plotted to determine Gl50 values for the compounds using XL-fit (ID Business Solution, Emeryville, CA). Gl50 is defined as the concentration of compound required for 50% inhibition of cell growth.

[2] = target: T1, HDAC1 enzyme (Homo sapiens, UniProt Q13547); assay: In vitro HDAC assay for determination of IC50 values (BIOMOL fluorescent-based HDAC activity assay); format: biochemical; settings: recombinant GST-HDAC1, 500 uM Flur de lys substrate, room temperature 2 h; read-out: IC50 (HDAC 1)
T1 construct: Amplification of human HDAC1 coding region from this cDNA library was cloned separately into the baculovirus expression pDEST20 vector; made in house; host or cells: SF9 insect cells (baculovirus, pDEST20 vector)
Experimental: Human cDNA library was prepared using cultured SW620 cells. Amplification of human HDAC1 coding region from this cDNA library was cloned separately into the baculovirus expression pDEST20 vector (GATEWAY Cloning Technology, Invitrogen Pte Ltd). The pDEST20-HDAC1 construct was confirmed by DNA sequencing. Recombinant baculovirus was prepared using the Bac-To-Bac method following the manufacturer's instruction (Invitrogen Pte Ltd).
Expression of GST-HDAC1 was done by infecting SF9 cells (Invitrogen Pte Ltd) with pDEST20-HDAC1 baculovirus at MOI=1 for 48 h. Soluble cell lysate was incubated with pre-equilibrated Glutathione Sepharose 4B beads (Amersham) at 4°C for 2 h. The beads were washed with PBS buffer for 3 times. The GST-HDAC1 protein was eluted by elution buffer containing 50 mM Tris, pH8.0, 150mM NaCl, 1% Triton X-100 and 10mM or 20mM reduced Glutathione. The purified GST-HDAC1 protein was dialyzed with HDAC storage buffer containing 10mM Tris, pH7.5, 100mM NaCl and 3mM MgCl2. 20% Glycerol was added to purified GST-HDAC1 protein before storage at -80°C.
The assay has been carried out in 96 well format and the BIOMOL fluorescent-based HDAC activity assay has been applied. The reaction composed of assay buffer, containing 25 mM Tris pH 7.5, 137 mM NaCl, 2.7 mM KCl, 1 mM MgCl2, 1 mg/ml BSA, tested compounds, an appropriate concentration of HDAC1 enzyme, 500 uM Flur de lys generic substrate for HDAC1 enzyme and subsequently was incubated at room temperature for 2 h. Flur de lys Developer was added and the reaction was incubated for 10 min. Briefly, deacetylation of the substrate sensitizes it to the developer, which then generates a fluorophore. The fluorophore is excited with 360 nm light and the emitted light (460 nm) is detected on a fluorometric plate reader (Tecan Ultra Microplate detection system, Tecan Group Ltd.).
The analytical software, Prism 4.0 (GraphPad Software Inc) has been used to generate IC50 from a series of data. IC50 is defined as the concentration of compound required for 50% inhibition of HDAC enzyme activity.

T1 sequence (Q13547 whole entry): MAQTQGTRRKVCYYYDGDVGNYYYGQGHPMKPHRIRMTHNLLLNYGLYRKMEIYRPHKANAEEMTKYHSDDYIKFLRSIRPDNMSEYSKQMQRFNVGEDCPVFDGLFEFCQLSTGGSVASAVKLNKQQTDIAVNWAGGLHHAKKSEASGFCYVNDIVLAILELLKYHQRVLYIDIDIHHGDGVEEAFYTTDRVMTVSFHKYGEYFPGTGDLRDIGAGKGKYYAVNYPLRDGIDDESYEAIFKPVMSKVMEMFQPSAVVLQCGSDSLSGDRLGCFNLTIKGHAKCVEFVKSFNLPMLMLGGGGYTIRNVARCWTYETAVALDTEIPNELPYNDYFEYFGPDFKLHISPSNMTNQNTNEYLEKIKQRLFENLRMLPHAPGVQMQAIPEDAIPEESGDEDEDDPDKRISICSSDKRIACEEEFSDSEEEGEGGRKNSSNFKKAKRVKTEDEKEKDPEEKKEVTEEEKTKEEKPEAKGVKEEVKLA

## CCCN(CC)Cc1c(C)nc2cc(C=CC(=O)NO)ccn12 [Compound 30, 3-{3-[(Ethyl-propyl-amino)-methyl]-2-methyl-imidazo[1,2-a]pyridin-7-yl}-N-hydroxy-acrylamide]
[1]
  IC50: 4.6 µM
[2]
  IC50: 0.54 µM

## CCC(CC)CN(CC)Cc1c(C)nc2cc(C=CC(=O)NO)ccn12 [Compound 31, 3-(3-{[Ethyl-(2-ethyl-butyl)-amino]-methyl}-2-methyl-imidazo[1,2-a]pyridin-7-yl)-N-hydroxy-acrylamide]
[1]
  IC50: 0.05 µM
[2]
  IC50: 0.01 µM

## CCCN(Cc1c(C(C)(C)C)nc2cc(C=CC(=O)NO)ccn12)C(C)C [Compound 32, 3-{2-tert-Butyl-3-[(isopropyl-propyl-amino)-methyl]-imidazo[1,2-a]pyridin-7-yl}-N-hydroxy-acrylamide]
[1]
  IC50: 2.5 µM
[2]
  IC50: 0.3 µM

## CN(Cc1c(C(C)(C)C)nc2cc(/C=C/C(=O)NO)ccn12)CC(C)(C)C [Compound 33, 3-(-tert-Butyl-3-{[(2,2-dimethyl-propyl)-methyl-amino]-methyl}-imidazo[1,2-a]pyridin-7-yl)-N-hydroxy-acrylamide]
[1]
  IC50: 6.3 µM
[2]
  IC50: 0.78 µM

## CCCCN(C)Cc1c(C(C)(C)C)nc2cc(C=CC(=O)NO)ccn12 [Compound 34, 3-{2-tert-Butyl-3-[(butyl-methyl-amino)-methyl]-imidazo[1,2-a]pyridin-7-yl}-N-hydroxy-acrylamide]
[1]
  IC50: 1.7 µM
[2]
  IC50: 0.22 µM

## CCC(CC)CN(C)Cc1c(C(C)(C)C)nc2cc(C=CC(=O)NO)ccn12 [Compound 35, 3-(2-tert-Butyl-3-{[(2-ethyl-butyl)-methyl-amino]-methyl}-imidazo[1,2-a]pyridin-7-yl)-N-hydroxy-acrylamide]
[1]
  IC50: 2.3 µM
[2]
  IC50: 0.41 µM

## CC(C)CCN(C)Cc1c(C(C)(C)C)nc2cc(C=CC(=O)NO)ccn12 [Compound 36, 3-(2-tert-Butyl-3-{[methyl-(3-methyl-butyl)-amino]-methyl}-imidazo[1,2-a]pyridin-7-yl)-N-hydroxy-acrylamide]
[1]
  IC50: 0.9 µM
[2]
  IC50: 0.35 µM

## CN(CCC(C)(C)C)Cc1c(C(C)(C)C)nc2cc(C=CC(=O)NO)ccn12 [Compound 37, 3-(2-tert-Butyl-3-{[(3,3-dimethyl-butyl)-methyl-amino]-methyl}-imidazo[1,2-a]pyridin 7-yl)-N-hydroxy-acrylamide]
[1]
  IC50: 0.73 µM
[2]
  IC50: 0.27 µM

## CCCN(Cc1c(C)nc2cc(C=CC(=O)NO)ccn12)CC(C)(C)C [Compound 38, 3-(3-{[(2,2-Dimethyl-propyl)-propyl-amino]-methyl}-2-methyl-imidazo[1,2-a]pyridin-7-yl)-N-hydroxy-acrylamide]
[1]
  IC50: 0.7 µM
[2]
  IC50: 0.13 µM

## CCN(Cc1c(C)nc2cc(C=CC(=O)NO)ccn12)CC(C)(C)C [Compound 39, 3-(3-{[(2,2-Dimethyl-propyl)-ethyl-amino]-methyl}-2-methyl-imidazo[1,2-a]pyridin-7-yl)-N-hydroxy-acrylamide]
[1]
  IC50: 0.6 µM
[2]
  IC50: 0.05 µM

## CCCCc1nc2cc(C=CC(=O)NO)ccn2c1CN(CC)CC(C)C [Compound 40, 3-(2-Butyl-3-[(ethyl-isobutyl-amino)-methyl]-imidazo[1,2-a]pyridin-7-yl}-N-hydroxy-acrylamide]
[1]
  IC50: 0.57 µM
[2]
  IC50: 0.09 µM

## CCCCc1nc2cc(C=CC(=O)NO)ccn2c1CN(CC)CCC(C)C [Compound 42, 3-(2-Butyl-3-{[ethyl-(3-methyl-butyl)-amino]-methyl}-imidazo[1,2-a]pyridin-7-yl)-N-hydroxy-acrylamide]
[1]
  IC50: 0.09 µM
[2]
  IC50: 0.02 µM

## CCCCc1nc2cc(C=CC(=O)NO)ccn2c1CN(CC)CC(C)(C)C [Compound 43, 3-(2-Butyl-3-{[(2,2-dimethyl-propyl)-ethyl-amino]-methyl}-imidazo[1,2-a]pyridin-7-yl)-N-hydroxy-acrylamide]
[1]
  IC50: 0.95 µM
[2]
  IC50: 0.16 µM

## CCCCc1nc2cc(C=CC(=O)NO)ccn2c1CN(CC)CC(C)CCC (centres unmarked) [Compound 44, 3-(2-Butyl-3-{[ethyl-(2-methyl-pentyl)-amino]-methyl}-imidazo[1,2-a]pyridin-7-yl)-N-hydroxy-acrylamide]
[1]
  IC50: 0.49 µM
[2]
  IC50: 0.08 µM

## CCCCc1nc2cc(C=CC(=O)NO)ccn2c1CN(CC)CCC(C)(C)C [Compound 45, 3-(2-Butyl-3-{[(3,3-dimethyl-butyl)-ethyl-amino]-methyl)-imidazo[1,2-a]pyridin-7-yl)-N-hydroxy-acrylamide]
[1]
  IC50: 0.14 µM
[2]
  IC50: 0.03 µM

## CCCCc1nc2cc(C=CC(=O)NO)ccn2c1CN(CC)CC(CC)CC [Compound 46, 3-(2-Butyl-3-{[ethyl-(2-ethyl-butyl)-amino]-methyl}-imidazo[1,2-a]pyridin-7-yl)-N-hydroxy-acrylamide]
[1]
  IC50: 0.39 µM
[2]
  IC50: 0.15 µM

## CCCCc1nc2cc(C=CC(=O)NO)ccn2c1CN(CC)CCC(C)CC(C)(C)C (centres unmarked) [Compound 47, 3-(2-Butyl-3-{[ethyl-(3,5,5-trimethyl-hexyl)-amino]-methyl}-imidazo[1,2-a]pyridin-7-yl)-N-hydroxy-acrylamide]
[1]
  IC50: 0.53 µM
[2]
  IC50: 0.2 µM

## CCCc1nc2cc(C=CC(=O)NO)ccn2c1CN(CC)CCC(C)C [Compound 51, 3-(3-{[Ethyl-(3-methyl-butyl)-amino]-methyl}-2-propyl-imidazo[1,2-a]pyridin-7-yl)-N-hydroxy-acrylamide]
[1]
  IC50: 0.08 µM
[2]
  IC50: 0.03 µM

## CCCc1nc2cc(C=CC(=O)NO)ccn2c1CN(CC)CCC(C)(C)C [Compound 52, 3-(3-{[(3,3-Dimethyl-butyl)-ethyl-amino]-methyl}-2-propyl-imidazo[1,2-a]pyridin-7-yl)-N-hydroxy-acrylamide]
[1]
  IC50: 0.07 µM
[2]
  IC50: 0.02 µM

## CCCCCc1nc2cc(C=CC(=O)NO)ccn2c1CNC(C)(C)C [Compound 53, 3-[3-(tert-Butylamino-methyl)-2-pentyl-imidazo[1,2-a]pyridin-7-yl]-N-hydroxy-acrylamide]
[1]
  IC50: 0.07 µM
[2]
  IC50: 0.02 µM

## CCCCCc1nc2cc(C=CC(=O)NO)ccn2c1CN(CC)CCCC [Compound 54, 3-{3-[(Butyl-ethyl-amino)-methyl]-2-pentyl-imidazo[1,2-a]pyridin-7-yl}-N-hydroxy-acrylamide]
[1]
  IC50: 0.15 µM
[2]
  IC50: 0.04 µM

## CCCCCc1nc2cc(C=CC(=O)NO)ccn2c1CN(CC)CCC(C)C [Compound 55, 3-(3-{(Ethyl-(3-methyl-butyl)-amino]-methyl}-2-pentyl-imidazo[1,2-a]pyridin-7-yl)-N-hydroxy-acrylamide]
[1]
  IC50: 0.14 µM
[2]
  IC50: 0.03 µM

## CCCCCc1nc2cc(C=CC(=O)NO)ccn2c1CN(CC)CCC(C)(C)C [Compound 56, 3-(3-{[(3,3-Dimethyl-butyl)-ethyl-amino]-methyl}-2-pentyl-imidazo[1,2-a]pyridin-7-yl)-N-hydroxy-acrylamide]
[1]
  IC50: 0.15 µM
[2]
  IC50: 0.03 µM

## CCCCN(CC)Cc1c(CCC)nc2cc(C=CC(=O)NO)ccn12 [Compound 57, 3-{3-[(Butyl-ethyl-amino)-methyl]-2-propyl-imidazo[1,2-a]pyridin-7-yl}-N-hydroxy-acrylamide]
[1]
  IC50: 0.16 µM
[2]
  IC50: 0.04 µM

## CC(C)Cc1nc2cc(C=CC(=O)NO)ccn2c1CNC(C)(C)C [Compound 58, 3-[3-(tert-Butylamino-methyl)-2-isobutyl-imidazo[1,2-a]pyridin-7-yl]-N-hydroxy-acrylamide]
[1]
  IC50: 0.21 µM
[2]
  IC50: 0.05 µM

## CCCCN(CC)Cc1c(CC(C)C)nc2cc(C=CC(=O)NO)ccn12 [Compound 59, 3-{3-[(Butyl-ethyl-amino)-methyl]-2-isobutyl-imidazo[1,2-a]pyridin-7-yl}-N-hydroxy-acrylamide]
[1]
  IC50: 0.15 µM
[2]
  IC50: 0.04 µM

## CCN(CCC(C)(C)C)Cc1c(CC(C)C)nc2cc(/C=C/C(=O)NO)ccn12 [Compound 61]
[1]
  IC50: 0.17 µM
[2]
  IC50: 0.03 µM

## CCc1nc2cc(C=CC(=O)NO)ccn2c1CNC(C)(C)C [Compound 62, 3-[3-(tert-Butylamino-methyl)-2-ethyl-imidazo[1,2-a]pyridin-7-yl]-N-hydroxy-acrylamide]
[1]
  IC50: 0.26 µM
[2]
  IC50: 0.03 µM
